This is an account of results in patent publication US10952432B2, “Cannabidiol compositions and uses thereof” (PHARMOTECH SA, priority 2016, dated 2021).

For assay [1], the system named is methicillin-resistant Staphylococcus aureus (MRSA) strains. As to conditions: Appendino et al., 2008; cited from earlier work.
Assay [2] relates to elastase produced by P. aeruginosa PAOW1(PT5). Nature of the assay: Elastase production measured by Elastin Congo Red enzymatic activity. It is filed as cell-based, Pseudomonas aeruginosa. The conditions noted are these: CBD 500 μg/ml, overnight culture of wt strain, absorption at 495 nm normalized to cell density. As for the experimental part: Elastase production was measured in two bacterial strains: Pseudomonas aeruginosa PAOW1(PT5) that is a wild type (wt) and Pseudomonas aeruginosa ΔlasIΔrhlI that is a mutant for quorum sensing signaling that has reduced production/expression of elastase due to the inhibition of the quorum sensing system. […] Insoluble ECR was removed by centrifugation and the absorption of the supernatant was measured at 495 nm and normalized according to cell density.

Assay [3] deals with Pseudomonas aeruginosa ATCC 27853. Put plainly: Biofilm formation, crystal violet staining. Format: cell-based. As for the experimental part: Overnight pre-cultures of Pseudomonas aeruginosa ATCC 27853 strain were diluted to an OD600 (optical density measured at a wavelength of 600 nm) of 0.1 in 2 ml of LB (lysogeny broth) medium into polypropylene tubes. […] Planktonic cells were removed by washing once with distilled water and biofilms were stained with crystal violet (CV, 1% in water) for 30 minutes. CV was discarded and tubes were rinsed twice with water to remove excess of dye. The stained biofilms were re-suspended in 33% acetic acid and their density was evaluated by measuring the OD600 of the suspensions normalized for bacterial density.

For another assay, the target named is CB2 receptors (Homo sapiens, UniProt P34972). As to conditions: compared with THC; cited from earlier work.
Chain of CB2 receptors (P34972 whole entry): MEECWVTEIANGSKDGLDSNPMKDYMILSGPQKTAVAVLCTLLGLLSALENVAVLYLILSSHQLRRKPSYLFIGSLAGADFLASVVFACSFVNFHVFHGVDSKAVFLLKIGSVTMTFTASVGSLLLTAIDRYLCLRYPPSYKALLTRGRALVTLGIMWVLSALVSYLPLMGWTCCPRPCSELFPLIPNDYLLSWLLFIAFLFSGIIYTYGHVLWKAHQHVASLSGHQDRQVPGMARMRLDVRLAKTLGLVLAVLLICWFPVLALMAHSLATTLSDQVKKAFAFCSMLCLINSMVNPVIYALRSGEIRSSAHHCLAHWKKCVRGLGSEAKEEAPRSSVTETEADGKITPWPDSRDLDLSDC

Regarding `C=C(C)[C@@H]1CCC(C)=C[C@H]1c1c(O)cc(CCCCC)cc1O` [CBD, 2-[(1R,6R)-6-isopropenyl-3-methylcyclohex-2-en-1-yl]-5-pentylbenzene-1,3-diol], in assay [1], the “activity against a variety of MRSA strains” value is given as “having activity”. In addition, the “reduction of the production of elastase as compared to control” value in assay [2] was “about 30%”. In addition, the “reduction of biofilm formation by a factor, as compared to control without CBD” value in assay [3] (CBD 1.9 μg/ml to 31.25 μg/ml, 12 h at 37° C., LB medium, OD600 normalized for bacterial density) is “about 2”. Besides, the “inhibitory effect on biofilm formation at higher concentration” value in assay [3] (higher concentration of CBD (62.5 and 125 μg/ml tested), probably due to reduced solubility in culture medium) is “inhibitory effect on biofilm formation is reduced”. Moreover, the “affinity for CB2 receptors” value on CB2 receptors is listed as “very low affinity”.
As for `C=C(C)[C@@H]1CCC(C)=C[C@H]1c1c(O)cc(O)cc1CCCCC` [abn-CBD, reference compound], the “activity against a variety of MRSA strains” value in assay [1] is on record as “having activity”.
